*1 amine or outer side, *2 acyl side, *3 side chain or, on linkers, in order; H or OH if unused. Where a SMILES comes first, the peptide text is derived from it. [ ]: non-standard residue; d: D form. The star is where a group is joined. GluureaLys(ε-3-ClBenzyl) = O=C(O)CC[C@H](NC(=O)N[C@@H](CCCCN(Cc1cccc(Cl)c1)*)C(=O)O)C(=O)O; Dolaproine = CO[C@@H]([C@@H]1CCCN1)[C@@H](C)C(=O)O; Dil = CC[C@H](C)[C@H](NC)[C@@H](CC(=O)O)OC; X2 = O=C(CCCc1cn(CCCN[*:1])nn1)[*:2]; PABC = O=C(OCc1ccc(N[*:1])cc1)[*:2]; X1 = C[C@@H](N*)[C@@H](O)c1ccccc1; Cit = NC(=O)NCCC[C@H](N)C(=O)O; Suc = O=C(CCC(=O)[*:2])[*:1]; NMeV = CN[C@H](C(=O)O)C(C)C; Ahx = NCCCCCC(=O)O
Key:
LNCaP cells = assay: In vitro cytotoxicity, MTS assay, LNCaP; format: cell-based; conditions: 72 h, high PSMA expression, range 0.5 to 800 nM, triplicates
Experimental: (§1) The resulting bimodal conjugates were tested in vitro on three different PCa cell lines. We used LNCaP cells with high PSMA expression, 22Rv1 cells with moderate PSMA expression and PC-3 cells with extremely low PSMA expression. Different levels of PSMA expression in 22Rv1 and LNCaP cell lines allows evaluation of the effect of the level of expression on the toxicity of the target drugs. PSMA-negative cell line PC-3 allows a qualitative assessment of non-specific toxicity of the obtained compounds.
(§2) The cytotoxicity of the investigated substances was tested using the MTS assay with some modifications. Cells were seeded in the 96-well plates (Corning, New York, NY, USA) at concentration of 7000 cells per well for PC-3 culture, 12,000 cells per well for LNCaP cells and 20,000 cells per well for 22Rv1 line. The cells were counted using the automatic cell counter EVE. All cell lines were purchased from the American Type Culture Collection (ATCC, Manassas, VA, USA). After 1 day, serial dilutions of tested substances were added to the cells. Cell culture medium with addition of DMSO in appropriate concentrations was used as a negative control. DMSO (30%) was added in culture medium as a positive control. Cells were then incubated during 72 h at 37 °C and 5% CO2. Later, the culture medium from each well was removed and 20 μL of MTS reagent (CellTiter 96 AQueous Non-Radioactive Cell Proliferation Assay, Promega) were added to each well with 100 μL of new culture medium. After 4 h incubation at 37 °C in darkness, the absorbance of the solution was measured at 490 nm wavelength using Thermo Scientific Multiskan GO spectrometer. Cell viability was calculated as a percentage compared to control cells. The absorbance of MTS reagent in culture medium without cells was taken as zero. […] Experiments were performed in triplicates. Data were analyzed using Prism 9—GraphPad version 9.2.0 software. p values < 0.05 were considered significant.

22Rv1 cells = assay: In vitro cytotoxicity, MTS assay, 22Rv1; format: cell-based, human; conditions: 72 h, moderate PSMA expression, range 0.5 to 800 nM, triplicates
Experimental: as §1, §2

PC-3 cells = assay: In vitro cytotoxicity, MTS assay, PC-3; format: cell-based, human; conditions: 72 h, extremely low PSMA expression, range 0.5 to 800 nM, triplicates
Experimental: as §1, §2

SMILES | CC50, LNCaP (LNCaP cells) | CC50, 22Rv1 (22Rv1 cells) | CC50, PC-3 (PC-3 cells)
CC[C@H](C)[C@@H]([C@@H](CC(=O)N1CCC[C@H]1[C@H](OC)[C@@H](C)C(=O)N[C@H](C)[C@@H](O)c1ccccc1)OC)N(C)C(=O)[C@@H](NC(=O)[C@H](C(C)C)N(C)C(=O)OCc1ccc(NC(=O)[C@H](CCCNC(N)=O)NC(=O)[C@@H](NC(=O)CCCc2cn(CCCNC(=O)[C@H](Cc3ccc(O)cc3)NC(=O)[C@H](Cc3ccccc3)NC(=O)CCC(=O)NCCCCCC(=O)N(CCCC[C@H](NC(=O)N[C@@H](CCC(=O)O)C(=O)O)C(=O)O)Cc3cccc(Cl)c3)nn2)C(C)C)cc1)C(C)C [I, reference compound] ({GluureaLys(ε-3-ClBenzyl)-Ahx-Suc}-FY[X2]V[Cit][PABC][NMeV]V[Dil][Dolaproine]-X1) | 77.7 ± 1.3 nM | 78.5 ± 0.8 nM | >800 nM
CC[C@H](C)[C@@H]([C@@H](CC(=O)N1CCC[C@H]1[C@H](OC)[C@@H](C)C(=O)N[C@H](C)[C@@H](O)c1ccccc1)OC)N(C)C(=O)[C@@H](NC(=O)[C@@H](NC)C(C)C)C(C)C [MMAE, Monomethyl Auristatin E, reference compound] (H-[NMeV]V[Dil][Dolaproine]-X1) | 0.69 ± 0.1 nM | 0.42 ± 0.2 nM | >800 nM

Source: publication PMC10380083, “Synthesis of Prostate-Specific Membrane Antigen-Targeted Bimodal Conjugates of Cytotoxic Agents and Antiandrogens and Their Comparative Assessment with Monoconjugates” (International Journal of Molecular Sciences, 2023)
